Experimental data taken from patent publication US20080194524A1, “Compounds For the Inhibition of Undesired Cell Proliferation and Use Thereof” (JERINI AG, priority 2003, published 2008).
Where two headings read alike, the source gives them in different places. Where a SMILES comes first, the peptide text is derived from it. [ ]: non-standard residue; d: D form. The star is where a group is joined. Acetyl(2-(piperazin-1-yl)) = O=C(CN1CCNCC1)*; 2Nal = N[C@@H](Cc1ccc2ccccc2c1)C(=O)O; Bta = N[C@@H](Cc1csc2ccccc12)C(=O)O; Pip = O=C(O)[C@@H]1CCCCN1; CH2PO3H2 = O=P(O)(O)C*

Biological target: hPin1 (Protein interacting with NIMA (-kinase)) (Homo sapiens, UniProt Q13526)
Sequence (Q13526 whole entry): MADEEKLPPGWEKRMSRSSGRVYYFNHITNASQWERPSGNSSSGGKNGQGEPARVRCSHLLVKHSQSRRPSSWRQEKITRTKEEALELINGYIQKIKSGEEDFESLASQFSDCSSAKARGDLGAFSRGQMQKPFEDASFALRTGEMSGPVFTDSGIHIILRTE
Assay: protease-coupled PPIase assay, hPin1
Type: biochemical
[1] = hPin1 6 nM, substrate Ac-Ala-Ala-Ser(PO3H2)-Pro-Arg-pNA, trypsin, 35 mM HEPES pH 7.8, 6° C., read-out: Specificity of the inhibition with rotamases, Target T-1 (IC50 class)

Structure (SMILES)	IC50 [1]	IC50
NC(=O)[C@H](Cc1ccc2ccccc2c1)NC(=O)[C@@H]1CCCCN1C(=O)[C@H](CSCP(=O)(O)O)NC(=O)CC1CCCCC1 [Compound 11, [3-[2-(1-Carbamoyl-2-naphthalen-2-yl-ethylcarbamoyl)-piperidin-1-yl]-2-(2-cyclohexyl-acetylamino)-3-oxo-propylsulfanylmethyl]-phosphonic acid]	1000 to 10000 nM	
NC(=O)[C@H](Cc1ccc2ccccc2c1)NC(=O)[C@@H]1CCCCN1C(=O)[C@H](CSCP(=O)(O)O)NC(=O)C1CSC(=O)N1 (stereo partly shown) [Compound 12, {3-[2-(1-Carbamoyl-2-naphthalen-2-yl-ethylcarbamoyl)-piperidin-1-yl]-3-oxo-2-[(2-oxo-thiazolidine-4-carbonyl)-amino]-propylsulfanylmethyl}-phosphonicacid]		< 1000 nM
CC(=O)N[C@@H](Cc1csc2ccccc12)C(=O)N[C@@H](CSCP(=O)(O)O)C(=O)N(C)NC(=O)N[C@@H](Cc1ccc2ccccc2c1)C(N)=O [Compound 27, Ac-Bta-Cys(CH2—P(O)(OH)2)-NMeazaGly-2Nal-NH2]	< 1000 nM	
NC(=O)[C@H](Cc1ccc2ccccc2c1)NC(=O)[C@@H]1CCCCN1C(=O)[C@H](CSCP(=O)(O)O)NC(=O)Cc1ccc(-c2ccccc2)cc1 [Compound 24, {2-(2-Biphenyl-4-yl-acetylamino)-3-[2-(1-carbamoyl-2-naphthalen-2-yl-ethylcarbamoyl)-piperidin-1-yl]-3-oxo-propylsulfanylmethyl}-phosphonic acid]	< 1000 nM	
NC(=O)[C@H](Cc1ccc2ccccc2c1)NC(=O)[C@@H]1CCCCN1C(=O)[C@H](CSCP(=O)(O)O)NC(=O)[C@H](Cc1csc2ccccc12)NC(=O)CN1CCNCC1 [Compound 19, {2-[3-Benzo[b]thiophen-3-yl-2-(2-piperazin-1-yl-acetylamino)-propionylamino]-3-[2-(1-carbamoyl-2-naphthalen-2-yl-ethylcarbamoyl)-piperidin-1-yl]-3-oxo-propylsulfanylmethyl}-phosphonic acid] ({Acetyl(2-(piperazin-1-yl))}-[Bta]C(CH2PO3H2)[Pip][2Nal]-NH2)		< 1000 nM
NC(=O)[C@H](Cc1ccc2ccccc2c1)NC(=O)[C@@H]1CCCCN1C(=O)[C@H](CSCP(=O)(O)O)NC(=O)CC1NC(=O)NC1=O (stereo partly shown) [Compound 10, {3-[2-(1-Carbamoyl-2-naphthalen-2-yl-ethylcarbamoyl)-piperidin-1-yl]-2-[2-(2.5-dioxo-imidazolidin-4-yl)-acetylamino]-3-oxo-propylsulfanylmethyl}-phosphonicacid]		< 1000 nM
CC(C)COC(=O)N[C@@H](CSCP(=O)(O)O)C(=O)N1CCCC[C@H]1C(=O)N[C@@H](Cc1ccc2ccccc2c1)C(N)=O [Compound 43, {3-[2-(1-Carbamoyl-2-naphthalen-2-yl-ethylcarbamoyl)-piperidin-1-yl]-2-isobutoxycarbonylamino-3-oxo-propylsulfanylmethyl}-phosphonic acid]	1000 to 10000 nM	
COc1ccc(CCCC(=O)N[C@@H](CSCP(=O)(O)O)C(=O)N2CCCC[C@H]2C(=O)N[C@@H](Cc2ccc3ccccc3c2)C(N)=O)cc1 [Compound 38, {3-[2-(1-Carbamoyl-2-naphthalen-2-yl-ethylcarbamoyl)-piperidin-1-yl]-2-[4-(4-methoxy-phenyl)-butyrylamino]-3-oxo-propylsulfanylmethyl}-phosphonicacid]	< 1000 nM	
CC(=O)N[C@@H](Cc1csc2ccccc12)C(=O)N[C@@H](COCP(=O)(O)O)C(=O)N1CCCC[C@H]1C(=O)N[C@@H](Cc1ccc2ccccc2c1)C(N)=O [Compound 1, {2-(2-Acetylamino-3-benzo[b]thiophen-3-yl-propionylamino)-3-[2-(1-carbamoyl-2-naphthalen-2-yl-ethylcarbamoyl)-piperidin-1-yl]-3-oxo-propoxymethyl}-phosphonicacid] (Ac-[Bta]S(CH2PO3H2)[Pip][2Nal]-NH2)		1000 to 10000 nM
O=C(NC(Cc1ccc2ccccc2c1)c1nnc[nH]1)[C@@H]1CCCCN1C(=O)CSCP(=O)(O)O (stereo partly shown) [Compound 76, (2-{2-[2-Naphthalen-2-yl-1-(4H-[1,2,4]triazol-3-yl)-ethylcarbamoyl]-piperidin-1-yl}-2-oxo-ethylsulfanylmethyl)-phosphonic acid]	< 1000 nM	

Second part, led by results:

IC50 [1]	Structure (SMILES)	IC50
< 1000 nM	NC(=O)[C@H](Cc1ccc2ccccc2c1)NC(=O)[C@@H]1CCCCN1C(=O)[C@H](CSCP(=O)(O)O)NS(=O)(=O)CCCc1ccccc1 [Compound 50, [3-[2-(1-Carbamoyl-2-naphthalen-2-yl-ethylcarbamoyl)-piperidin-1-yl]-3-oxo-2-(3-phenyl-propane-1-sulfonylamino)-propylsulfanylmethyl]-phosphonicacid]	
< 1000 nM	NC(=O)[C@H](Cc1ccc2ccccc2c1)NC(=O)[C@@H]1CCCCN1CCSCP(=O)(O)O [Compound 55, {2-[2-(1-Carbamoyl-2-naphthalen-2-yl-ethylcarbamoyl)-piperidin-1-yl]-ethylsulfanylmethyl}-phosphonic acid]	
< 1000 nM	NC(=O)[C@H](Cc1ccc2ccccc2c1)NC(=O)[C@@H]1CCCCN1C(=O)CCSCP(=O)(O)O [Compound 29, {3-[2-(1-Carbamoyl-2-naphthalen-2-yl-ethylcarbamoyl)-piperidin-1-yl]-3-oxo-propylsulfanylmethyl}-phosphonic acid]	
< 1000 nM	NC(=O)[C@H](Cc1ccc2ccccc2c1)NC(=O)[C@@H]1CCCCN1C(=O)CSCP(=O)(O)O [Compound 28, {2-[2-(1-Carbamoyl-2-naphthalen-2-yl-ethylcarbamoyl)-piperidin-1-yl]-2-oxo-ethylsulfanylmethyl}-phosphonic acid]	
1000 to 10000 nM	CC(SCP(=O)(O)O)C(=O)N1CCCC[C@H]1C(=O)N[C@@H](Cc1ccc2ccccc2c1)C(N)=O (stereo in doubt) [Compound 65, {2-[2-(1-Carbamoyl-2-naphthalen-2-yl-ethylcarbamoyl)-piperidin-1-yl]-1-methyl-2-oxo-ethylsulfanylmethyl}-phosphonicacid]	
1000 to 10000 nM	O=C(NCCc1ccccc1)[C@@H]1CCCCN1C(=O)CSCP(=O)(O)O [Compound 67, [2-Oxo-2-(2-phenethylcarbamoyl-piperidin-1-yl)-ethylsulfanylmethyl]-phosphonicacid]	
1000 to 10000 nM	NC(=O)[C@H](Cc1ccc2ccccc2c1)NC(=O)[C@@H]1CCCCN1C(=O)[C@H](COCP(=O)(O)O)NC(=O)OCC1c2ccccc2-c2ccccc21 [Compound 4, [3-[2-(1-Carbamoyl-2-naphthalen-2-yl-ethylcarbamoyl)-piperidin-1-yl]-2-(9H-fluoren-9-ylmethoxycarbonylamino)-3-oxo-propoxymethyl]-phosphonic acid]	
< 1000 nM	CNC(=O)[C@H](Cc1ccc2ccccc2c1)NC(=O)[C@@H]1CCCCN1C(=O)CSCP(=O)(O)O [Compound 64, {2-[2-(1-Methylcarbamoyl-2-naphthalen-2-yl-ethylcarbamoyl)-piperidin-1-yl]-2-oxo-ethylsulfanylmethyl}-phosphonicacid]	
1000 to 10000 nM	NC(=O)[C@H](Cc1ccc2ccccc2c1)NC(=O)[C@@H]1CCCCN1C(=O)[C@H](CSCP(=O)(O)O)NC(=O)CN1CCNCC1 [Compound 41, [3-[2-(1-Carbamoyl-2-naphthalen-2-yl-ethylcarbamoyl)-piperidin-1-yl]-3-oxo-2-(2-piperazin-1-yl-acetylamino)-propylsulfanyl-methyl]-phosphonic acid]	
